The values below come from patent US9562044B2, “2-acylaminothiazole derivative or salt thereof” (ASTELLAS PHARMA INC., priority 2013, dated 2017).

Series [1] addresses T1, human c-Mpl receptor (Homo sapiens, UniProt P40238).
T1 construct: expressed in transfected cells
T1 sequence (P40238 26-635): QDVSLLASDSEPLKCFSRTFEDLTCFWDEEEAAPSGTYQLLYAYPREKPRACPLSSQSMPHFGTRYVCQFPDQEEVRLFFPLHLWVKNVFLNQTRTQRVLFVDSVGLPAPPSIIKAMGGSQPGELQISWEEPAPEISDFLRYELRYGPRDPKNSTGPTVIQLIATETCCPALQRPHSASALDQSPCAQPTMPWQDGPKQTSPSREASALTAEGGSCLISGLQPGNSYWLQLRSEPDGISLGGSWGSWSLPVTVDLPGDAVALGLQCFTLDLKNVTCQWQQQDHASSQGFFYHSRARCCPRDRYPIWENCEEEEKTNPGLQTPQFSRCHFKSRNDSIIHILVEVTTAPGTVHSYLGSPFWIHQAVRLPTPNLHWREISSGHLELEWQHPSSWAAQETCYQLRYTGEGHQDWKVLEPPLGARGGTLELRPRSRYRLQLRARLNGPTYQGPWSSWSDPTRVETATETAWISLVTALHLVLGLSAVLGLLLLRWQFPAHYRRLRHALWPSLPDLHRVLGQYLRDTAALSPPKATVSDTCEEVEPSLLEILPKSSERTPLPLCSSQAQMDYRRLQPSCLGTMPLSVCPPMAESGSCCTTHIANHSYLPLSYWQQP
Briefly: Human c-Mpl-introduced Ba/F3 cell proliferative activity. The format is cell-based. The following applies: concentration showing 30% proliferation; 100% = positive control at 1 μM. As to the method:
Evaluation of Human c-Mpl-Introduced Ba/F3 Cell Proliferative Activity
The human c-Mpl-introduced Ba/F3 cell proliferative activity was measured by the following method.
As a positive control, 1-(5-{[4-(4-chloro-2-thienyl)-5-{[(2R)-2-methylpyrrolidin-1-yl]methyl}-1,3-thiazol-2-yl]carbamoyl}-3-fluoropyridin-2-yl)piperidine-4-carboxylic acid hydrochloride, which is disclosed as Example 315 in Patent Document 1 and represented by the formula A1, was used. It is known that the compound has a good human c-Mpl-introduced Ba/F3 cell proliferative activity as disclosed in Table 1 of Patent Document 1.
a) Construction of Human c-Mpl Receptor Expression Vector
A human c-mpl receptor gene (GenBank Accession No. M90102.1) was introduced into an expression vector pEF-BOS (Nucleic Acids Res. 18, 5322, 1990).
b) Construction of Cell Stably Expressing Human c-Mpl Receptor
A human c-Mpl receptor expression vector was introduced into a Ba/F3 cell (RIKEN BRC: RCB0805). For the introduction, an electroporation method was used. pEF-BOS-c-mpl (10 μg), pSV2bsr (1 μg, Kaken Pharmaceutical Co., Ltd.) and 1×10^7 Ba/F3 cells were put into a cuvette having a gap width of 0.4 cm, and electroporated under the conditions of 1.5 kV (25 μF) by a Gene Pulser (registered trademark) (BioRad). The cells were cultured in an RPMI-1640 culture medium containing 0.5% WEHI conditioned media (BD Biosciences) and 10% fetal bovine serum for 3 days, and then cultured in an RPMI-1640 culture medium, to which 10 μg/mL blasticidin had been further added, for 30 days to acquire a drug-resistant clone.
c) Measurement of Cell Proliferative Activity
The cells obtained in b) above was cultured in an RPMI-1640 culture medium containing 0.5% WEHI conditioned media, 10% fetal bovine serum, and used. On the day before the experiment, test substances (final concentration of 100 nM to 10 μM) which had been dissolved in a culture medium for assay (RPMI-1640 culture medium containing 10% fetal bovine serum) were added to a 384-well plate (Lot No. 781185, Greiner Bio-One). The cells in the culture medium that had been replaced with a culture medium for assay were dispensed into a 384-well plate, to which the test substances had been added in advance, to 1×10^4 cells/well, and cultured at 37° C. and 5% CO2 overnight. On the experiment day, a solution of a Cell Counting Kit (Dojindo Laboratories) was added to each well of the 384-well plate and cultured at 37° C. and 5% CO2 for about 5 hours. Thereafter, the absorbance (absorption wavelength of 450 nm) of each well was measured using Safire^2™ (TECAN) and used as the index of the number of cells. Further, as a negative control, a well in which the test substance had been not added was prepared.
The absorbance of the well without the test substance was set to 0%, and the absorbance in the case where the positive control was added at a final concentration of 1 μM was set to 100%. From the absorbance in the case where the test substance had been added, a cell proliferation rate (%) was calculated. From the obtained results, the test substance concentration showing 30% proliferation was calculated as an EC30 value by a logistic regression method.

Series [2] has as its system isolated rat bladder. Briefly: Transmural electrical field stimulation-induced contraction of isolated rat bladder. The following applies: AUC of contractile response, value before treatment = 100%, SD female rat bladder strip, read-out: Enhancement rate of isolated bladder contraction (% of pre). As to the method: Effects on Transmural Electrical Field Stimulation-Induced Contraction of Isolated Rat Bladder
As an effect on the nerve stimulation-dependent bladder contraction in vitro, the effect of the Example compound of the present invention in the transmural electrical field stimulation-induced contraction of isolated rat bladder was measured by the following method. That is, from the bladder isolated from a Spraque-Dawley (SD) female rat (Japan SLC, Inc.), a longitudinal bladder strip having a width of about 2 mm and a length of about 10 mm was prepared. The prepared bladder strip was suspended in an organ bath filled with 10 mL of a Krebs-Henseleit solution. The Krebs-Henseleit solution was bubbled with 95% O2 and 5% CO2, and kept at 37° C. After stabilization at an initial tension of 1 g, contraction was induced twice with 60 mM KCl. The strip was washed with the Krebs-Henseleit solution and stabilized, and then contraction was induced with transmural electrical field stimulation at 20 V (stimulation frequency of 8 Hz, pulse width of 0.3 msec, and stimulation time of 10 seconds) by an electrical stimulation device (Nihon Kohden Corporation). At an interval of 2 minutes, transmural electrical field stimulation was repeated and the voltage was adjusted to make the contractile amplitude about 50% of the contractile response by 20 V. After stabilization of the contraction by the transmural electrical field stimulation, 10 μL of the test substance (final concentrations of 3 μM, 10 μM, and 30 μM), which had been dissolved in 100% dimethylsulfoxide in advance was added. The test substance was cumulatively administered at the next concentration after the contractile response at a lower concentration had been stabilized. The responses were put into a personal computer through PowerLab (registered trademark) (AD Instruments), and analyzed with LabChart (registered trademark) (AD Instruments). The area under the response of each contractile response (area under curve, AUC) was calculated and the value before the treatment with the test substance was set to 100%. Based on this, the enhancement rate of the isolated bladder contraction (% of pre) after the treatment with the test substance was calculated.
The enhancement rates of the isolated bladder contraction due to several 10 μM Example compounds which are the compounds of the formula (I) are shown in Table 2.

Series [3] has as its target T1, human c-Mpl receptor. The following applies: positive control; as disclosed in Patent Document 1; cited from earlier work.

A value given as a limit tells only on which side of the number the result lay.

As for `CC[C@@H]1CCCN1Cc1sc(NC(=O)c2cnc(N3CCC(C(=O)O)CC3)cn2)nc1-c1ccc(OC)c(C(F)(F)F)c1` [Example 8, 1-{5-[(5-{[(2R)-2-ethylpyrrolidin-1-yl]methyl}-4-[4-methoxy-3-(trifluoromethyl)phenyl]-1,3-thiazol-2-yl)carbamoyl]pyrazin-2-yl}piperidine-4-carboxylic acid], the melting point (usually the temperature of the solid-liquid transition) is 194 °C.

As for `CCCC1CCCN1Cc1sc(NC(=O)c2cnc(N3CCC(C(=O)O)CC3)cn2)nc1-c1ccc(OC)c(C(F)(F)F)c1` (stereo not shown) [Example 158], in series [1], the “Test Example 2 EC30” value is >10 µM. In addition, the activity at 10 µM in series [2] stood at 125%.

With `COc1ccc(-c2nc(NC(=O)c3cnc(N4CCC(C(=O)O)CC4)cn3)sc2CN2CCC[C@H]2C(F)(F)F)cc1C(F)(F)F` [Example 179], the “Test Example 2 EC30” value in series [1] was >10 µM. Further, the activity at 10 µM in series [2] was 120%.

Take `COc1ccc(-c2nc(NC(=O)c3cnc(N4CCC(C(=O)O)CC4)cn3)sc2CN2CCCC2C(C)C)cc1C(F)(F)F` (stereo not shown) [Example 188]: in series [1], the “Test Example 2 EC30” value is >10 µM. In addition, the activity at 10 µM in series [2] is 128%.

`C[C@@H]1CCCN1Cc1sc(NC(=O)c2cnc(N3CCC(C(=O)O)CC3)cn2)nc1-c1cc(Cl)cs1` [Example 206, 1-(5-{[4-(4-chloro-2-thienyl)-5-{[(2R)-2-methylpyrrolidin-1-yl]methyl}-1,3-thiazol-2-yl]carbamoyl}pyrazin-2-yl)piperidine-4-carboxylic acid] yielded a melting point of 201 °C.

For `COc1cc(-c2nc(NC(=O)c3cnc(N4CCC(C(=O)O)CC4)cn3)sc2CN2CCCC[C@H]2C)cc(C(F)(F)F)c1` [Example 207, 1-{5-[(4-[3-methoxy-5-(trifluoromethyl)phenyl]-5-{[(2R)-2-methylpiperidin-1-yl]methyl}-1,3-thiazol-2-yl)carbamoyl]pyrazin-2-yl}piperidine-4-carboxylic acid], the melting point came to 136 °C.

Take `C[C@@H]1CCCN1Cc1sc(NC(=O)c2cnc(N3CCC(C(=O)O)CC3)c(F)c2)nc1-c1cc(Cl)cs1.Cl` [Example A1, 1-(5-{[4-(4-chloro-2-thienyl)-5-{[(2R)-2-methylpyrrolidin-1-yl]methyl}-1,3-thiazol-2-yl]carbamoyl}-3-fluoropyridin-2-yl)piperidine-4-carboxylic acid hydrochloride]: in series [3], the “Human c-Mpl-introduced Ba/F3 cell proliferative activity (Table 1 of Patent Document 1)” value is given as “good”.
